Measurements taken from patent publication US20180161338A1, “RETOSIBAN FOR THE TREATMENT OF PRE-TERM LABOUR” (priority 2014, published 2018).
Bridge positions count the residues as written; N and C are the ends. Square brackets hold non-standard residues; d marks the D form. Peptide text beside a SMILES is read from it. Orn = NCCC[C@H](N)C(=O)O; Mpa = O=C(O)CCS

Key:
Human myometrial strips = test: Maximal contractile responses to KCl and oxytocin of myometrial strips cultured under low or high stretch; type: cell-based; details: for median fold change with retosiban, maximal response to KCl / median fold change with retosiban, maximal response to oxytocin: retosiban versus vehicle
Experimental: Human myometrial strips (obtained from non-labouring patients undergoing routine elective caesarean section at term) were cultured in medium (phenol red free DMEM supplemented with 10% charcoal stripped foetal calf serum, 2 mM L-glutamine and antibiotics) in an incubator (37° C., humidified 5% CO2) under conditions of low stretch (0.6 g mass) or high stretch (2.4 g mass). Half of the strips in both the low and high stretch groups were incubated with […] retosiban (diluted in DMSO). The remaining strips (paired samples from the same patient) were incubated DMSO.
After 20-24 hours incubation, myometrial contractility of the strips was studied as described previously (J Physiol 2012; 590(Pt9): 2081-2093). Briefly, tension was initially set at 2 g for all strips. Strips were washed with fresh Krebs after 15 and 30 min and the tension reset to 2 g. After a further hour of washes (every 15 min), the issue was treated with 50 mM KCl (50 mM, 5-7 min). This was washed, the tissue allowed to recover and then a cumulative concentration response curve to oxytocin (up to 100 nM) was obtained. Maximal responses to KCl and oxytocin were normalized to strip wet weight. The mean normalized responses of duplicate strips were calculated for the four different groups (low stretch with retosiban, low stretch with vehicle, high stretch with retosiban, high stretch with vehicle). Effects were expressed as fold change i.e. the ratio of normalized responses in the experimental and control conditions from different strips obtained from the same person. pEC50 values were calculated using analysis of the area under the curve for each concentration of oxytocin.
Since the data were expressed as fold changes, all ratios were log transformed and normal distribution following log transformation was assessed using the Sharpiro-Wilk test. The null hypothesis was that there was no change in the mean normalized responses with a given intervention. […] Continuous associations were assessed using linear regression of log transformed fold changes. For the analysis of pEC50 Student's paired t-test was used.

[1] = tested on: pre-term labour in singleton pregnancies; details: cited from earlier work
[2] = tested on: pre-term labour in twin pregnancies; details: isolated reports, not placebo controlled; cited from earlier work
[3] = tested on: women pregnant with twins; details: prophylactic administration; cited from earlier work
[4] = tested on: asymptomatic women with a short cervix pregnant with a single foetus; details: daily administration; cited from earlier work

In the case of `CC[C@H](C)[C@@H]1C(=O)N[C@H](C2Cc3ccccc3C2)C(=O)N1[C@@H](C(=O)N1CCOCC1)c1coc(C)n1` [retosiban, (3R,6R)-3-(2,3-dihydro-1H-inden-2-yl)-1-[(1R)-1-(2-methyl-1,3-oxazol-4-yl)-2-(morpholin-4-yl}-2-oxoethyl]-6-[(1S)-1-methylpropyl]-2,5-piperazinedione], the “median fold change with retosiban, maximal response to KCl” value (Human myometrial strips; high stretch (2.4 g), n=12) is reported as 0.74, the “median fold change with retosiban, maximal response to oxytocin” value (Human myometrial strips; high stretch (2.4 g), n=12) is reported as 0.71 and the “median fold change with retosiban, maximal response to KCl” value (Human myometrial strips; low stretch (0.6 g), n=12) is reported as 1.00. The “median fold change with retosiban, maximal response to oxytocin” value (Human myometrial strips; low stretch (0.6 g), n=12) was 0.97, the “relationship between the effect of stretch and the effect of retosiban on responses to KCl and oxytocin” value (Human myometrial strips; per patient, FIG. 3) was “the greater was the reduction in response induced by retosiban” and the “fold change with stretch (high stretch compared with low stretch), maximal response to KCl” value (Human myometrial strips; strips incubated with 1 mM retosiban 20-24 h, retosiban removed, 50 mM KCl, n=12) was 1.14. For the same compound, the “fold change with stretch (high stretch compared with low stretch), maximal response to oxytocin” value (Human myometrial strips; strips incubated with 1 mM retosiban 20-24 h, retosiban removed, oxytocin up to 100 nM, n=12) was 1.14, the “increase in days to delivery relative to placebo (mean)” value ([1]; phase II clinical study) was 8.2 days and the “response rate or percentage of women achieving uterine quiescence” value ([1]; ≤4 contractions/h with no change in cervical dilation >1 cm at 5-6 h, depending upon route of administration/dose) was 50-57%.

In the case of `CCOc1ccc(C[C@H]2NC(=O)CCSSC[C@@H](C(=O)N3CCC[C@H]3C(=O)N[C@@H](CCCN)C(=O)NCC(N)=O)NC(=O)[C@H](CC(N)=O)NC(=O)[C@H]([C@@H](C)O)NC(=O)[C@H]([C@@H](C)CC)NC2=O)cc1` [atosiban] ([Mpa][dY](Et)ITNCP[Orn]G-NH2; disulfide 1-6), the “treatment of pre-term labour in twin pregnancies” value [2] is listed as “used successfully”.

For `CCCCCC(=O)O[C@]1(C(C)=O)CC[C@H]2[C@@H]3CCC4=CC(=O)CC[C@]4(C)[C@H]3CC[C@@]21C` [17-α hydroxyprogesterone caproate], the “reduction in the frequency of pre-term birth” value [3] is listed as “no reduction”.

For `CC(=O)[C@H]1CC[C@H]2[C@@H]3CCC4=CC(=O)CC[C@]4(C)[C@H]3CC[C@]12C` [vaginal progesterone, progesterone], the “reduction of the frequency of birth before 34 weeks of gestation” value [4] is listed as “more than 40%”.
